Measured values as given in PMC3749181, “Rapid Identification of Antifungal Compounds against Exserohilum rostratum Using High Throughput Drug Repurposing Screens” (PLoS ONE, 2013).
Where two headings read alike, the source gives them in different places.

Assays:
[1] = tested on: E. rostratum hyphal fragments; experiment: hyphal fragment fungicidal ATP content assay (PBS, 1536-well); format: cell-based, Exserohilum rostratum; conditions: for Emax / Hyphae % M. Res. / Hyphae % Max. Resp.: 46 µM Amphotericin B = 100%; for IC50: read-out: Hyphae IC50
Procedure: (§1) Conidia and hyphae of E. rostratum were obtained as described by Richard et al., with the following modifications. Briefly, conidia were harvested from Potato Dextrose Agar (PDA) cultured media with 0.05% Tween 80, and the conidial suspension was filtered using a Cell Strainer (100 µm, BD Falcon REF 352340). After centrifugation at 700g for 10 min, the suspension was decanted and conidia were resuspended at 1×10^5 per ml in RPMI and counted in a hemocytometer. Hyphae were harvested from yeast extract peptone dextrose (YPD) culture media with 0.05% Tween 80. Hyphal fragments were sized by vortexing 15 sec twice with 0.4 mm glassbeads, and the hyphae suspension was filtered by cheese cloth twice. […] To normalize concentrations of hyphal fragments for batch to batch consistency, carbohydrate analysis was performed by a phenol-sulfuric acid method as previously described. The final stock concentration of hyphae was adjusted to 1.0 (OD490) per 100 µl.
(§2) The ATPLite assay kit, consisting of luciferase/luciferin and detergent, was used to quantitate cellular ATP levels as a marker for cell viability (Table 1). For assay development, hyphal fragments or conidia in PBS were plated in a seeding density of 3,750, 7,500 and 15,000 cellular particles/well with a final volume of 5 µl/well using the Multidrop-Combi dispenser in white 1536-well plates. Conidia or hyphae fragments were incubated for 24 h at 37°C in a 5% CO2 humidified atmosphere. ATPLite detection reagents were added at 4 µl/well. The assay plates were incubated at room temperature for 15 minutes before reading luminescence intensity on a ViewLux plate reader (Perkin Elmer, Waltham, MA). Conidia suspended in RPMI medium were inoculated at concentrations of 62.5, 125 and 250 conidia/well with a final volume of 5 µl/well in white 1536-well plates. The conidia assay was developed and optimized in the same way as the hyphal assay.
(§3) The LOPAC library (Sigma-Aldrich) has been extensively used for HTS assay validations, [18]. The NIH Chemical Genomics Center Pharmaceutical (NPC) collection was constructed in-house through a combined effort of compound purchasing and custom synthesis and recently expanded to 4096 compounds. […] 2.5 µl/well PBS was dispensed into 1536-well plates using a Multidrop-Combi dispenser. Compound in DMSO solution was transferred in a volume of 23 nl/well using a NX-TR pintool station (WAKO Scientific Solutions, San Diego, CA). This additional PBS step for compound addition was designed to prevent the potential fungal contamination of compound libraries. The hyphal fragments in PBS were then added at 2.5 µl/well for a final seeding density of 15,000 hyphal fragments/well using the Multidrop-Combi dispenser. The final compound concentration was 46 µM in the primary screen. The assay plates were incubated for 24 h at 30°C before the detection of cellular viability with the ATP content assay. Screen of conidia was performed in a similar way except that PBS was replaced with RPMI medium and conidia were plated for a final seeding density of 250 conidia/well.
(§4) The primary screen data and curve fitting were analyzed using software developed internally at the NIH Chemical Genomics Center (NCGC). Total signals for cellular viability (100% cellular viability) were calculated from the wells with DMSO solvent and the complete cell killing (0% cellular viability) was calculated from 46 µM amphotericin B treated wells. […] All values were expressed as the mean +/− SD (n≥3).

[2] = tested on: E. rostratum conidia; experiment: conidia growth inhibition ATP content assay (RPMI, 1536-well); format: cell-based, Exserohilum rostratum; conditions: for IC50: 24 h, read-out: Conidia IC50; for Emax / Conidia % M. Res. / Conidia % Max. Resp.: 46 µM Amphotericin B = 100%; for Conidia IC50: Inact. = no significant activity at the highest compound concentration (46 µM)
Procedure: as §1, §2, §3, §4

[3] = tested on: SH-SY5Y cells; experiment: SH-SY5Y cytotoxicity counter-screen (ATP content assay); format: cell-based, Human; conditions: for SH-SY5Y % Max. Resp.: Table 2, SH-SY5Y, inact. = no significant activity at 46 µM; for SH-SY5Y % M. Res. / SH-SY5Y IC50: Table S1; for SH-SY5Y % M. Res.: Inact. = no significant activity at 46 µM; for SH-SY5Y IC50: Inact. = no significant activity at the highest compound concentration (46 µM)
Procedure: Human neuroblastoma SH-SY5Y cell line (Catalog No. CRL-2266) was purchased from ATCC (Manassas, VA). SH-SY5Y cell line was cultured in 175-cm^2 tissue culture flasks (Costar, Cambridge, MA) with 30 ml of growth medium at 37°C in a 5% CO2 humidified atmosphere. Growth medium was made with Dulbecco's Modified Eagle Medium: Nutrient Mixture F-12 with 10% fetal bovine serum (FBS). Growth medium was replaced every other day and cells were passed at 75% confluence.
as §2
Two small known compound libraries including the LOPAC (1280 compounds) and approved drugs (4096 compounds) were screened in parallel using the above optimized assays for hyphae and conidia in 1536-well plates (Fig. 4). […] A mammalian SH-SY5Y cell line was used in parallel as a counter-screen with the same ATP content assay kit to assess the specificity of these compounds for E. rostratum.

[4] = Exserohilum rostratum, Table 2, inact. = no significant activity in the primary screen, read-out: Hyphae % Max. Resp.
[5] = Exserohilum rostratum, Table 2, 24 h, inact. = no significant activity in the primary screen
[6] = Exserohilum rostratum, Table 2, inact. = no significant activity at the highest compound concentration (46 µM)
[7] = Exserohilum rostratum, Table 2, inact. = no significant activity at 46 µM, read-out: Conidia % Max. Resp.
[8] = Table S1, Inact. = no significant activity in the primary screen
[9] = Table S1, Inact. = no significant activity at 46 µM
[10] = Exserohilum rostratum, Table S1, Inact. = no significant activity in the primary screen, read-out: Hyphae % M. Res.
[11] = Exserohilum rostratum, Table S1, Inact. = no significant activity at 46 µM, read-out: Conidia % M. Res.
[12] = Table 2, inact. = no significant activity in the primary screen
[13] = Table 2, 24 h, inact. = no significant activity in the primary screen
[14] = Table 2, inact. = no significant activity at 46 µM
[15] = Table 2, inact. = no significant activity at the highest compound concentration (46 µM)

Compound	Emax [1, 4] [%]	IC50 [1, 5] [nM]	IC50 [2, 6] [nM]	Emax [2, 7] [%]	SH-SY5Y % Max. Resp. ([3]; 46 µM Amphotericin B = 100%)	SH-SY5Y % Max. Resp. [3]	Hyphae % M. Res. [1, 8]	Hyphae IC50 [1, 8]	Conidia % M. Res. [2, 9]	Conidia IC50 ([2]; Table S1)	SH-SY5Y % M. Res. ([3]; 46 µM Amphotericin B = 100%)	SH-SY5Y IC50 [3]	further results
N=C(N)c1ccc(OCCCCCOc2ccc(C(=N)N)cc2)cc1 [Pentamidine isethionate]	82	468	1110	108	inact.	inact.							
Cc1cccc(N(C)C(=S)Oc2ccc3c(c2)CCC3)c1 [Tolindate]							Inact.	Inact.	Inact.	Inact.	Inact.	Inact.	
O=[N+]([O-])c1c(Cl)cccc1-c1c[nH]cc1Cl [Pyrrolnitrin]	80	5590	409	101	inact.	inact.							
Clc1ccc(COC(Cn2ccnc2)c2ccc(Cl)cc2Cl)cc1 (centres unmarked) [Econazole nitrate]											Inact.		Emax [1, 10]: 77%; Emax [2, 11]: 64%
C=CCOC(Cn1ccnc1)c1ccc(Cl)cc1Cl (centres unmarked) [Enilconazole]	73	312	1720	102	inact.	inact.							
CC1(C)CCC(NC(=O)[C@@H](N)CCC(=O)O)CC1 [Neboglamine]							Inact.	Inact.	Inact.	Inact.	Inact.	Inact.	
OC(Cn1cncn1)(Cn1cncn1)c1ccc(F)cc1F [Fluconazole]							Inact.	Inact.	Inact.	Inact.	Inact.	Inact.	activity in the hyphae assay ([1]; concentrations up to 46 µM): no activity; activity in the conidia assay ([2]; concentrations up to 46 µM): no activity
CC(C)(C)c1cc(C=C(C#N)C#N)cc(C(C)(C)C)c1O [Tyrphostin A9]			1980	100	61%	18.6%							Hyphae % Max. Resp. [1, 12]: inact.; Hyphae IC50 [1, 13]: inact.
O=P(O)(O)OC(Cn1cncn1)(Cn1cncn1)c1ccc(F)cc1F [Fosfluconazole]							Inact.	Inact.	Inact.	Inact.	Inact.	Inact.	
Nc1[nH]c(=O)ncc1F [Flucytosine]							Inact.	Inact.	Inact.	Inact.	Inact.	Inact.	
Phenylmercuric borate					99%	0.417%							Hyphae % Max. Resp. [1, 12]: inact.; Hyphae IC50 [1, 13]: inact.; Conidia % Max. Resp. [2, 14]: 103%; IC50 [2, 15]: 149 nM
Mepartricin							Inact.	Inact.	80%		38%		IC50 [3]: 37200 nM
C[CH2][Hg][S]c1ccccc1C(=O)[O-].[Na+] [Thimerosal]					96%	2.63%							Hyphae % Max. Resp. [1, 12]: inact.; Hyphae IC50 [1, 13]: inact.; Conidia % Max. Resp. [2, 14]: 102%; IC50 [2, 15]: 139 nM
CCC(C)(C)c1ccc(CC(C)CN2C[C@@H](C)O[C@@H](C)C2)cc1 (some centres unmarked) [Amorolfine]	81	4510	7860	102	inact.	inact.							
Oc1ccc(Cl)cc1Sc1cc(Cl)ccc1O [Fenticlor]				107	inact.	inact.							Hyphae % Max. Resp. [1, 12]: inact.; Hyphae IC50 [1, 13]: inact.; IC50 ([2]; Exserohilum rostratum): 5720 nM
Sc1nc2ccccc2s1 [2-Mercaptobenzothiazole]							Inact.	Inact.	Inact.	Inact.	Inact.	Inact.	
Cc1cc(N)c2ccccc2[n+]1CCCCCCCCCC[n+]1c(C)cc(N)c2ccccc21 [Dequalinium dichloride]	93	673	2540	109	inact.	inact.							
CC(=O)N1CCN(c2ccc(OCC3COC(Cn4ccnc4)(c4ccc(Cl)cc4Cl)O3)cc2)CC1 (centres unmarked) [Ketoconazole]	74	2380	3470	101	inact.	inact.					Inact.	Inact.	Emax [1, 10]: 74%; Emax [2, 11]: 101%
Oc1c(Br)cc(Br)c2cccnc12 [Broxyquinoline]	96	4510	1600	98	100%	58.9%							
CO/C=C(/C(=O)OC)c1ccccc1Oc1cc(Oc2ccccc2C#N)ncn1 [Azoxystrobin]					inact.	inact.							Hyphae % Max. Resp. [1, 12]: 81%; IC50 [1, 13]: 198 nM; Conidia % Max. Resp. [2, 14]: 83%; IC50 [2, 15]: 304 nM
CC(=O)[O][Hg][c]1ccccc1 [Phenylmercuric acetate]					96%	0.417%							Hyphae % Max. Resp. [1, 12]: inact.; Hyphae IC50 [1, 13]: inact.; Conidia % Max. Resp. [2, 14]: 99%; IC50 [2, 15]: 146 nM
N[C@@H](COP(=O)(O)O)C(=O)O [Dexfosfoserine]							Inact.	Inact.	Inact.	Inact.	Inact.	Inact.	
